# Measurements from patent US10245255B2, “Compositions and methods for the treatment of obesity and related disorders” (THE REGENTS OF THE UNIVERSITY OF MICHIGAN, priority 2011, dated 2019).
# Entries after “also recorded” stand apart in the source; their conditions may differ.
# How the values were obtained:
# [1] = High fat diet prevention group: body weight and food intake; type: in vivo, C57BL/6 mice
# Description: (§1) Wild type male C57BL/6 mice were fed a high fat diet consisting of 45% of calories from fat (D12451 Research Diets Inc., New Brunswick, N.J.) starting at 8 weeks of age for 12-24 weeks, while normal diet C57BL/6 controls were maintained on normal chow diet consisting of 4.5% fat (5002 Lab Diet, Philadelphia, Pa.). Diets containing ω-3 fatty acids were fed as previously described 24. Rosiglitazone treatment was administered for three weeks by addition of the compound to the diet in mice that had been on HFD for 16 weeks. Each mouse consumed on average 3.5 mg/kg rosiglitazone per day. Amlexanox was administered by daily oral gavage. […] Animals were housed in a specific pathogen-free facility with a 12-hour light/12-hour dark cycle and given free access to food and water. All animal use was in compliance with the Institute of Laboratory Animal Research Guide for the Care and Use of Laboratory Animals and approved by the University Committee on Use and Care of Animals at the University of Michigan and UCSD.
# (§2) The remaining weight of food provided was determined daily for singly housed mice. Daily food consumption was calculated from a three-day average.
# [2] = Established diet-induced obesity treatment group: body weight, food intake, body composition; type: in vivo, C57BL/6 mice
# Description: as §1, §2
# [3] = Diet-induced obesity treatment group: insulin tolerance test; type: in vivo, C57BL/6 mice
# Description: as §1
# For glucose tolerance tests, after a six-hour fast mice were orally gavaged with glucose at a dose of 1.5 g/kg (C57BL/6 mice) or 1.2 g/kg (ob/ob mice). […] Blood glucose was measured at basal, 15, 30, 45, 60, 90, 120 and 180 minutes from tail blood using the One Touch Ultra glucometer (Lifescan, Milpitas, Calif.).
# [4] = Diet-induced obese mice: liver weight, triglyceride, glycogen, histology; type: in vivo, C57BL/6 mice
# Description: as §1
# Liver lipids were isolated as previously described (Norris et. Al. 2003) and the triglyceride levels were measured by Triglyceride Reagent kit.
# Determination of glycogen in liver was performed as follows. Briefly, liver tissue was digested in a 30% potassium hydroxide solution, and then glycogen was precipitated using ethanol. After three washes to remove any traces of glucose, glycogen was digested by addition of amyloglucosidase. Released glucose was quantified using a colorimetric kit (Wako, Richmond, Va.).
# (§3) Tissues were fixed in formalin for 3 days. Histology was performed by the University of Michigan Cancer Center Research Histology Laboratory.
# [5] = Diet-induced obese mice: tissue protein, phosphorylation and gene expression (liver, WAT, BAT); type: in vivo, C57BL/6 mice
# Description: as §1
# Tissues were homogenized in lysis buffer (50 mM Tris, pH 7.5, 5 mM EDTA, 250 mM sucrose, 1% NP40, 2 mM DTT, 1 mM sodium vanadate, 100 mM NaF, 10 mM Na4P2O7, and freshly added protease inhibitor tablet), then incubated for one hour at 4° C. Crude lysates were then centrifuged at 14,000×g for 15 minutes twice and the protein concentration was determined using BioRad Protein Assay Reagent. Samples were diluted in sodium dodecyl sulfate (SDS) sample buffer. Bound proteins were resolved by SDS-polyacrylamide gel electrophoresis and transferred to nitrocellulose membranes (Bio-Rad, Hercules, Calif.). Individual proteins were detected with the specific antibodies and visualised on film using horseradish peroxidase-conjugated secondary antibodies (Bio-Rad, Hercules, Calif.) and Western Lightning Enhanced Chemiluminescence (Perkin Elmer Life Sciences, Waltham, Mass.).
# as §3
# Mouse tissues were isolated, rinsed in Phosphate Buffered Saline (PBS), frozen in liquid nitrogen and stored at −80° C. until extraction. Total RNA was extracted from Liver, WAT and BAT tissues as well as differentiated 3T3-L1 cells using the RNeasy Lipid Tissue Kit (Qiagen, Valencia, Calif.) according to the manufacturer's instructions with the inclusion of a DNase digestion step. Total RNA was extracted from BMDM and SVF cells using the RNeasy Kit (Qiagen, Valencia, Calif.) with a DNase step. The Superscript First-Strand Synthesis System for RTPCR (Invitrogen, Grand Island, N.Y.) was used with random primers for reverse transcription. Realtime PCR amplification of the cDNA was performed on samples in triplicate with Power SYBR Green PCR Master Mix (Applied Biosystems, Carlsbad, Calif.) using the Applied Biosystems 7900HT Fast Realtime PCR System. […] Data was analyzed using the 2-ΔΔCT method, and statistical significance was determined using the unpaired heterocedastic Student's t-test with one averaged sample value per mouse.
# [6] = Ob/ob mice: liver weight, triglycerides, histology; type: in vivo; settings: 100 mg/kg for 14 weeks
# [7] = system: 3T3-L1 adipocytes; assay: 3T3-L1 adipocytes: phosphorylation (immunoblot) and lipolysis; type: cell-based
# Description: 3T3-L1 fibroblasts (American Type Culture Collection, Manassas, Va.) were cultured and differentiated using standard methods known in the art. […] 3T3-L1 adipocytes were serum starved with 0.5% fetal bovine serum (FBS) in Dulbecco's modified eagle medium (DMEM) prior to treatment. TNFα treatments (50 ng/mL unless otherwise noted) were performed during the 24 hour prior to harvest, after pretreatment with IKKβ inhibitor compound VIII (EMD Biosciences, Philadelphia, Pa.) for 1 hour where indicated. […] Cells were treated with or without 10 nM of insulin for 15 minutes. RAW264.7 cells were serum starved with 0.5% FBS DMEM media and pre-treated with or without Cay-10576 (Cayman Chemical, Ann Arbor, Mich.). The cells were then treated with LPS (0.5 μg/ml) or poly I:C (50 μg/ml) for 1 hour. Cells were harvested for total RNA and analyzed by real-time PCR Cell lysates were resolved on SDS-PAGE and analyzed by immunoblot using the indicated antibodies.
# [8] = diet induced obese mice, 25 mg/kg for 8 weeks
# [9] = cells chronically treated with TNFα
compound,measurement,setting,value
"CC(C)c1ccc2oc3nc(N)c(C(=O)O)cc3c(=O)c2c1 [amlexanox, 2-amino-7-isopropyl-5-oxo-5H-chromeno[2,3-b]pyridine-3-carboxylic acid]",body weight compared with control diet mice,"[1]; 45% fat diet, 25 or 100 mg/kg, throughout 12 weeks",maintained weights equivalent to those of control diet mice
same,weight gain produced by high-fat diet,"[1]; 45% fat diet, daily gavage, either dose 25 or 100 mg/kg",prevented the weight gain
same,weight gain after switching to 60% fat diet,"[1]; both doses 25 and 100 mg/kg, after 12 weeks on 45% fat diet",prevented substantial weight gain
same,weight loss,"[2]; 25 mg/kg after 12 weeks of 45% high-fat diet, after 4 weeks of treatment",10 g
same,reduction in overall mass of adipose tissue,"[2]; 25 mg/kg, HFD, treatment phase",> 6 gram
same,time to return to control weights after treatment was stopped,"[2]; withdrawal after 8 weeks of 25 mg/kg treatment, HFD",6-8 weeks
same,insulin sensitivity (insulin tolerance test),"[3]; 25 mg/kg, established diet-induced obesity",restoration in insulin responsiveness to normal diet levels
same,insulin sensitivity in normal diet-fed mice,[3]; normal diet,did not affect
same,reductions in hepatic lipids after mice were taken off drug,"[4]; continued on high fat diet, stained tissue sections",reversed
same,large lipid droplets in liver (H & E staining),[4]; [8],largely disseminated
same,reduction in liver weight,[4]; [8],greater than 20%
same,hepatic glycogen levels,"[4]; diet induced obese mice, 25 mg/kg for 8 weeks, vs control HFD mice",lower
same,reduction of triglyceride content in liver,"[4]; diet induced obese mice, 25 mg/kg for 8 weeks, vs vehicle",more than 50%
same,expression of brown fat-specific marker Cidea in BAT,"[5]; HFD, 25 mg/kg daily",increased
same,UCP1 protein levels in brown fat,"[5]; HFD, treatment group",increased
same,mitochondrial genes in brown fat,[5]; compared to control,no increases
same,signaling through the mTORC1 pathway in BAT,[5]; compared to controls,Reduced signaling
same,TBK1 phosphorylation in adipose tissue,[5]; diet induced obese mice,prevented
same,high fat diet induction of IKKε protein in adipose tissue,[5]; diet induced obese mice,blocked
same,high fat diet-induced increase of S6K phosphorylation in adipose tissue,[5]; diet induced obese mice,largely attenuated
same,UCP-1 protein levels in adipose tissue,[5]; diet induced obese mice vs HFD vehicle,increased
same,brown fat appearance,[5]; high fat diet,reverted to its normal appearance
same,hormone sensitive lipase phosphorylation in adipose tissue,[5]; high fat diet,prevented the reduction
same,BAT lipids when amlexanox treatment was stopped,"[5]; high fat diet, withdrawal",lipids again accumulated
same,genetic measures of hepatosteatosis,[5]; mice with diet induced obesity,similarly reduced
same,IKKε protein levels in BAT,"[5]; mouse, in vivo",reduced
same,TBK1 protein levels in BAT,"[5]; mouse, in vivo",reduced
same,large lipid droplets in liver (H & E staining),[6],largely disseminated
same,reduction in liver weight,[6],greater than 20%
same,reduction of triglyceride contents in livers,[6],more than 50%
same,basal lipolytic rate (glycerol release),[7],increased
same,poly I:C-stimulated phosphorylation of IRF3 (serine 396),"[7]; 1 hour pre-treatment, 20 μg/ml poly I:C",blocked; also recorded: inhibition
same,down regulation of PPARγ produced by TNFα,[7]; [9],did not affect
same,forskolin stimulated hormone sensitive lipase phosphorylation (serine 660),[7]; [9],restored; also recorded: partially restores
same,phosphorylation of TBK1 at serine 172 in TNFα-treated cells,[7]; [9],restored
same,phosphorylation of TBK1 on serine 172,"[7]; two-fold serial dilution, highest concentration 50 μM, with and without poly I:C",increased phosphorylation; also recorded: induction
